The test system of test [1] is Strep. faecalis L149 ATCC 7080. Kind of test: MIC, microbroth dilution. Format: cell-based, Streptococcus faecalis. As to conditions: inocula 10^4 to 10^5 CFU/ml, Iso-Sensitest broth, 18-24 h, 37° C. The procedure: (§1) MIC for Propionibacterium aches, and Bacteroides fragilis are determined by agar dilution (inocula 10^4 /10^5 CFU/spot). MIC for other organisms are determined by microbroth dilution (inocula 10^4 to 10^5 CFU/ml). Incubation times are 18-24 h, except for Haemophilus influenzae, P. acnes, B. fragilis (48 h). All organisms are incubated at 37° C.; H. influenzae is incubated in a 5% CO2 atmosphere, anaerobes in an anaerobic gas mixture. Media used are: Iso-Sensitest broth (Oxoid) (Staphylococci, Streptococcus faecalis, Escherichia coli, Proteus vulgaris; brain heart infusion broth (Difco)+1% Supplement C (Difco) (H. influenzae); The minimal inhibitory concentrations (MIC, microgram/ml) for some microorganisms are reported below in Table VII.

Test [2] deals with Bact. fragilis L1010 ATCC 23745. Kind of test: MIC, agar dilution. The class given is cell-based, Bacteroides fragilis. Particulars: inocula 10^4 /10^5 CFU/spot, 48 h, 37° C., anaerobic gas mixture. How it is done: as §1
On the technique in general: In agar dilution, organisms are placed on agar that contains the substance at set levels.

Test [3] deals with Prop. acnes L1014 ATCC 6919. Kind of test: MIC, agar dilution. The class given is cell-based, P. acnes. As to conditions: inocula 10^4 /10^5 CFU/spot, 48 h, 37° C., anaerobic gas mixture. How it is done:
as §1

In test [4] the test system is Staph. epidermidis L147 ATCC 12228. Put plainly: MIC, microbroth dilution. The class given is cell-based. As to conditions: inocula 10^4 to 10^5 CFU/ml, Iso-Sensitest broth, 18-24 h, 37° C. How it is done:
as §1
(In general: In broth dilution the organism is exposed to a series of concentrations in liquid medium.)

Test [5] deals with Strep. pneumoniae L44 UC41. Kind of test: MIC, microbroth dilution. Format: cell-based. Particulars: inocula 10^4 to 10^5 CFU/ml, 18-24 h, 37° C. The procedure:
as §1

The subject of test [6] is Haemophilus Influenzae type B. Put plainly: MIC, microbroth dilution. The class given is cell-based. Particulars: brain heart infusion broth +1% Supplement C, 48 h, 37° C., 5% CO2. The procedure: as §1
The test system of a further test is Staph. haemolyticus L602. Kind of test: MIC, microbroth dilution. Particulars: inocula 10^4 to 10^5 CFU/ml, Iso-Sensitest broth, 18-24 h, 37° C. Format: cell-based. How it is done: as §1
Another test concerns Staph. aureus L165 Tour. Put plainly: MIC, microbroth dilution. The class given is cell-based. As to conditions: inocula 10^4 to 10^5 CFU/ml, Iso-Sensitest broth, 18-24 h, 37° C. How it is done:
as §1

A further test concerns Esch. coli L47 SKF 12140. Put plainly: MIC, microbroth dilution. The class given is cell-based, Escherichia coli. As to conditions: inocula 10^4 to 10^5 CFU/ml, Iso-Sensitest broth, 18-24 h, 37° C. The procedure:
as §1

A further test deals with Prot. vulgaris ATCC 881. Put plainly: MIC, microbroth dilution. As to conditions: inocula 10^4 to 10^5 CFU/ml, Iso-Sensitest broth, 18-24 h, 37° C. The class given is cell-based, Proteus vulgaris. The procedure:
as §1

`CNC(=O)CC1NC(=O)c2nc(sc2COC)C(C(C)C)NC(=O)c2csc(n2)-c2ccc(-c3nc(C(=O)NC(CCSC)C(=O)O)cs3)nc2-c2csc(n2)-c2csc(n2)C(C(O)c2ccccc2)NC(=O)CNC(=O)c2nc1sc2C` (centres unmarked) [Compound 8]: the MIC is reported as 0.25 microgram/ml in test [1]; 32 microgram/ml in test [2]; less than 0.13 microgram/ml in test [3]; 2 microgram/ml in [4]; 4 microgram/ml in test [5]; 64 microgram/ml in test [6]. The MIC with Staph. haemolyticus L602 is listed as 2 microgram/ml; in the test on Staph. aureus L165 Tour, 0.25 microgram/ml; in the test with Esch. coli L47 SKF 12140, more than 128 microgram/ml; with Prot. vulgaris ATCC 881, more than 128 microgram/ml.
Consider `CNC(=O)CC1NC(=O)c2nc(sc2COC)C(C(C)C)NC(=O)c2csc(n2)-c2ccc(-c3nc(C(=O)NCC(=O)N4CCCC4C(N)=O)cs3)nc2-c2csc(n2)-c2csc(n2)C(C(O)c2ccccc2)NC(=O)CNC(=O)c2nc1sc2C` (centres unmarked) [Compound 14], for which the MIC in [1] was 0.06 microgram/ml; in test [2] it was more than 128 microgram/ml; in [3], 0.03 microgram/ml; in test [4], 0.13 microgram/ml; in test [5] it was more than 128 microgram/ml; in test [6], more than 128 microgram/ml. The MIC is listed as 0.25 microgram/ml with Staph. haemolyticus L602, 0.06 microgram/ml with Staph. aureus L165 Tour, more than 128 microgram/ml with Esch. coli L47 SKF 12140 and more than 128 microgram/ml in the test on Prot. vulgaris ATCC 881.
As to `CNC(=O)CC1NC(=O)c2nc(sc2COC)C(C(C)C)NC(=O)c2csc(n2)-c2ccc(-c3nc(C(=O)NCCCC(=O)O)cs3)nc2-c2csc(n2)-c2csc(n2)C(C(O)c2ccccc2)NC(=O)CNC(=O)c2nc1sc2C` (centres unmarked) [Compound 18], the MIC in [1] worked out at 0.13 microgram/ml; in test [2] it was 2 microgram/ml; in test [3], 0.016 microgram/ml; in [4], 0.25 microgram/ml; in test [5], 1 microgram/ml; in test [6] it was 2 microgram/ml. Besides, the MIC is 1 microgram/ml in the test on Staph. haemolyticus L602, 0.25 microgram/ml with Staph. aureus L165 Tour, more than 128 microgram/ml in the test with Esch. coli L47 SKF 12140 and more than 128 microgram/ml against Prot. vulgaris ATCC 881.
Consider `CNC(=O)CC1NC(=O)c2nc(sc2COC)C(C(C)C)NC(=O)c2csc(n2)-c2ccc(-c3nc(C(=O)NCCCCCC(=O)O)cs3)nc2-c2csc(n2)-c2csc(n2)C(C(O)c2ccccc2)NC(=O)CNC(=O)c2nc1sc2C` (centres unmarked) [Compound 19], for which the MIC in [1] came to 0.06 microgram/ml; in test [2], 4 microgram/ml; in test [3], 0.008 microgram/ml; in test [4], 0.06 microgram/ml; in test [5], 0.25 microgram/ml; in [6] it was 2 microgram/ml. The MIC in the test with Staph. haemolyticus L602 is on record as 0.25 microgram/ml; with Staph. aureus L165 Tour, 0.06 microgram/ml; against Esch. coli L47 SKF 12140, more than 128 microgram/ml; against Prot. vulgaris ATCC 881, more than 128 microgram/ml.
Consider `CNC(=O)CC1NC(=O)c2nc(sc2COC)C(C(C)C)NC(=O)c2csc(n2)-c2ccc(-c3nc(C(=O)NCCCCCCCC(=O)O)cs3)nc2-c2csc(n2)-c2csc(n2)C(C(O)c2ccccc2)NC(=O)CNC(=O)c2nc1sc2C` (centres unmarked) [Compound 20], for which the MIC in test [1] is less than 0.13 microgram/ml; in [2] it was more than 128 microgram/ml; in test [3], 0.03 microgram/ml; in [4], 0.25 microgram/ml; in test [5] it was 2 microgram/ml; in test [6], more than 128 microgram/ml. Besides, the MIC with Staph. haemolyticus L602 is 0.25 microgram/ml; with Staph. aureus L165 Tour it was 0.25 microgram/ml; with Esch. coli L47 SKF 12140, more than 128 microgram/ml; in the test on Prot. vulgaris ATCC 881 it was more than 128 microgram/ml.
Consider `CNC(=O)CC1NC(=O)c2nc(sc2COC)C(C(C)C)NC(=O)c2csc(n2)-c2ccc(-c3nc(C(=O)NCCN(C)C)cs3)nc2-c2csc(n2)-c2csc(n2)C(C(O)c2ccccc2)NC(=O)CNC(=O)c2nc1sc2C` (centres unmarked) [Compound 32], for which the MIC in test [1] is 0.25 microgram/ml; in test [2], more than 128 microgram/ml; in test [3], 0.13 microgram/ml; in [4], 0.5 microgram/ml; in test [5] it was 1 microgram/ml; in [6], more than 128 microgram/ml. In addition, the MIC in the test on Staph. haemolyticus L602 is given as 0.5 microgram/ml; in the test with Staph. aureus L165 Tour, 0.5 microgram/ml; in the test with Esch. coli L47 SKF 12140, more than 128 microgram/ml; in the test on Prot. vulgaris ATCC 881, more than 128 microgram/ml.
On to `CNC(=O)CC1NC(=O)c2nc(sc2COC)C(C(C)C)NC(=O)c2csc(n2)-c2ccc(-c3nc(C(N)=O)cs3)nc2-c2csc(n2)-c2csc(n2)C(C(O)c2ccccc2)NC(=O)CNC(=O)c2nc1sc2C` (centres unmarked) [Compound 35], for which the MIC is listed as 0.06 microgram/ml in test [1]; more than 128 microgram/ml in test [2]; 0.004 microgram/ml in test [3]; 0.13 microgram/ml in [4]; more than 128 microgram/ml in [5]; more than 128 microgram/ml in test [6]. In addition, the MIC against Staph. haemolyticus L602 was 0.5 microgram/ml; against Staph. aureus L165 Tour, 0.13 microgram/ml; against Esch. coli L47 SKF 12140 it was more than 128 microgram/ml; against Prot. vulgaris ATCC 881 it was more than 128 microgram/ml.
For `CNC(=O)CC1NC(=O)c2nc(sc2COC)C(C(C)C)NC(=O)c2csc(n2)-c2ccc(-c3nc(C(=O)NCCCN)cs3)nc2-c2csc(n2)-c2csc(n2)C(C(O)c2ccccc2)NC(=O)CNC(=O)c2nc1sc2C.O=C(O)C(F)(F)F` (centres unmarked) [Compound 36], the MIC is reported as 0.13 microgram/ml in [1]; more than 128 microgram/ml in [2]; 0.06 microgram/ml in test [3]; 0.13 microgram/ml in test [4]; 4 microgram/ml in test [5]; more than 128 microgram/ml in [6]. Besides, the MIC against Staph. haemolyticus L602 is reported as 0.13 microgram/ml; against Staph. aureus L165 Tour, 0.13 microgram/ml; in the test with Esch. coli L47 SKF 12140, more than 128 microgram/ml; against Prot. vulgaris ATCC 881, more than 128 microgram/ml.
Regarding `CNC(=O)CC1NC(=O)c2nc(sc2COC)C(C(C)C)NC(=O)c2csc(n2)-c2ccc(-c3nc(C(=O)NCC=O)cs3)nc2-c2csc(n2)-c2csc(n2)C(C(O)c2ccccc2)NC(=O)CNC(=O)c2nc1sc2C` (centres unmarked) [Compound 37], the MIC in test [1] is given as 0.06 microgram/ml; in test [2], more than 128 microgram/ml; in [3], 0.004 microgram/ml; in test [4], 0.06 microgram/ml; in [5], more than 128 microgram/ml; in [6] it was more than 128 microgram/ml. Also, the MIC is given as 0.13 microgram/ml with Staph. haemolyticus L602, 0.03 microgram/ml in the test on Staph. aureus L165 Tour, more than 128 microgram/ml with Esch. coli L47 SKF 12140 and more than 128 microgram/ml in the test with Prot. vulgaris ATCC 881.
As for `CNC(=O)CC1NC(=O)c2nc(sc2COC)C(C(C)C)NC(=O)c2csc(n2)-c2ccc(-c3nc(C(=O)NCCNCCC(=O)O)cs3)nc2-c2csc(n2)-c2csc(n2)C(C(O)c2ccccc2)NC(=O)CNC(=O)c2nc1sc2C` (centres unmarked) [Compound 38], the MIC was 16 microgram/ml in [1]; more than 128 microgram/ml in [2]; 0.25 microgram/ml in test [3]; 32 microgram/ml in [4]; more than 128 microgram/ml in test [5]; more than 128 microgram/ml in [6]. Further, the MIC is listed as 64 microgram/ml against Staph. haemolyticus L602, 32 microgram/ml against Staph. aureus L165 Tour, more than 128 microgram/ml in the test with Esch. coli L47 SKF 12140 and more than 128 microgram/ml with Prot. vulgaris ATCC 881.
Regarding `CNC(=O)CC1NC(=O)c2nc(sc2COC)C(C(C)C)NC(=O)c2csc(n2)-c2ccc(-c3nc(C(=O)NCCSCCC(=O)O)cs3)nc2-c2csc(n2)-c2csc(n2)C(C(O)c2ccccc2)NC(=O)CNC(=O)c2nc1sc2C` (centres unmarked) [Compound 39], the MIC in [1] is recorded as not above 0.13 microgram/ml; in test [2], 8 microgram/ml; in [3] it was not above 0.13 microgram/ml; in test [4], 0.25 microgram/ml; in [5], 4 microgram/ml; in test [6], 1 microgram/ml. The MIC is recorded as 2 microgram/ml in the test on Staph. haemolyticus L602, 0.13 microgram/ml against Staph. aureus L165 Tour, more than 128 microgram/ml in the test with Esch. coli L47 SKF 12140 and more than 128 microgram/ml against Prot. vulgaris ATCC 881.

The record behind these values is patent US5599791A, “Amides of antibiotic GE 2270 factors” (Gruppo Lepetit SPA, priority 1991, dated 1997).
